Structures can show the parent of a compound that is named as a salt. Where two headings read alike, the source gives them in different places.
Target: T1, human renal renin (Homo sapiens, UniProt P00797)
T1 construct: human renal renin, free from acid proteolytic activity; from tissue
T1 sequence (P00797 67-406): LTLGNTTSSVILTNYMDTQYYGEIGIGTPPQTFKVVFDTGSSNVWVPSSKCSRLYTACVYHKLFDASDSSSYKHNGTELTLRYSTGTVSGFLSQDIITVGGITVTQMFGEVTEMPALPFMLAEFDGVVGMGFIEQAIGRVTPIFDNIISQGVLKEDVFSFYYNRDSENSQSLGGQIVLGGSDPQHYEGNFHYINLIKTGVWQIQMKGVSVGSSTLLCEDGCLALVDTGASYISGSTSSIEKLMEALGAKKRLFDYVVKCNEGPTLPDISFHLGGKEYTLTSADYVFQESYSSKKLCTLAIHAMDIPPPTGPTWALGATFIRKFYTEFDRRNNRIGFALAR
Assay: Inhibition of human renal renin in vitro; angiotensin I formed measured by radioimmunoassay
Format: biochemical

[1] = human renal renin free from acid proteolytic activity, renin substrate human angiotensinogen, 37° C., pH 6.0

| Compound | IC50 | IC50 [1] |
| --- | --- | --- |
| CC(C)C[C@H](O)[C@H](O)[C@H](CC1CCCCC1)NC(=O)[C@H](Cc1c[nH]cn1)NC(=O)C(Cc1ccccc1)Cc1ccccc1 [Example 27, Dba-His Amide of 2(S)-Amino-l-cyclohexyl-3(R),4(S)-dihydroxy-6-methylhectane] | 7 nM |  |
| CC(C)C[C@H](O)[C@H](O)[C@H](CC1CCCCC1)NC(=O)[C@H](Cc1c[nH]cn1)NC(=O)[C@@H](N)Cc1ccccc1 [Example 84, Phe-His Amide of 2(S)-Amino-l-cyclohexyl-3(R),4(S)-dihydroxy-6-methylheptane] | 10 nM |  |
| CC(C)C[C@H](O)[C@H](O)[C@H](CC1CCCCC1)NC(=O)[C@H](Cc1c[nH]cn1)NC(=O)[C@H](Cc1ccccc1)NC(=O)[C@@H]1CCCN1 [Example 77, H-Pro-Phe-His Amide of 2(S)-Amino-l-cyclohexyl-3(R), 4(S)-dihydroxy-6-methylheptane Acetic Acid Salt] | 0.98 nM |  |
| CC(C)C[C@H](O)[C@H](O)[C@H](CC1CCCCC1)NC(=O)[C@H](Cc1c[nH]cn1)NC(=O)[C@H](Cc1ccccc1)NC(=O)[C@@H](C)NC(=O)OCc1ccccc1 [Example 69, Cbz-D-Ala-Phe-His Amide of 2(S)-Amino-l-cyclohexyl-3(R), 4(S)-dihydroxy-6-methylheptane] | 0.81 nM |  |
| COC(=O)C(CCCCC(=O)N[C@@H](Cc1ccc(OC)cc1)C(=O)N[C@@H](CC(C)C)C(=O)N[C@@H](CC1CCCCC1)[C@@H](O)[C@@H](O)CC(C)C)NC(=O)OCc1ccccc1 (stereo partly drawn) [Example 192, 6-(BenzYloxYcarbonyl)amino-6-(methoxycarbonyl)hexanoyl-(4-OMe)Phe-Leu Amide of 2(S)-Amino-l-cyclohexyl-3(R),4(S)-dihydroxy-6-methylheptane] | 0.61 nM |  |
| CC(C)C[C@H](O)[C@H](O)[C@H](CC1CCCCC1)NC(=O)[C@H](Cc1c[nH]cn1)NC(=O)[C@H](Cc1ccccc1)NC(=O)OCc1ccccc1 [Example 83, Cbz-Phe-His Amide of 2(S)-Amino-l-cyclohexyl-3(R), 4(S)-dihydroxy-6-methylheptane] | 0.6 nM |  |
| C[C@H](O)[C@H](O)[C@H](CC1CCCCC1)NC(=O)[C@H](Cc1c[nH]cn1)NC(=O)[C@H](Cc1ccccc1)NC(=O)OC(C)(C)C [Example 49, Boc-Phe-His Amide of 2(S)-Amino-l-cyclohexyl-3(R),4(S)-dihydroxypentane] |  | 2 nM |
| CCOC(=O)N[C@@H](Cc1ccccc1)C(=O)N[C@@H](CC(C)C)C(=O)N[C@@H](CC1CCCCC1)[C@@H](O)[C@@H](O)CC(C)C [Example 36, Ethoxycarbonyl-phe-Leu Amide of 2(S)-Amino-cyclohexyl-3(R),4(S)-dihydroxy-6-methylheptane] | 0.4 nM |  |
| CC(C)C[C@H](NC(=O)[C@H](Cc1ccccc1)NC(=O)OCCCOC(=O)CNC(=O)OCc1ccccc1)C(=O)N[C@@H](CC1CCCCC1)[C@@H](O)[C@@H](O)CC(C)C [Example 92, Cbz-Gly Ester of the Resultant Compound of Example 91 (at 3-Hydroxypropyloxy Group)] | 0.5 nM |  |
| COc1ccc(C[C@@H](C(=O)N[C@@H](CC(C)C)C(=O)N[C@@H](CC2CCCCC2)[C@@H](O)[C@@H](O)CC(C)C)N(C)C)cc1 [Example 56, (N,N-Dimethyl,4-methoxy)-Phe-Leu Amide of 2(S)-Amino-1-cyclohexyl-3(R),4(S)-dihydroxy-6-methylheptane] | 5.5 nM |  |
| CC(C)C[C@H](NC(=O)[C@@H](N)Cc1ccccc1)C(=O)N[C@@H](CC1CCCCC1)[C@@H](O)[C@@H](O)CC(C)C [Example 57, H-Phe-Leu Amide of 2(S)-Amino-l-cyclohexyl-3(R),4(S)-dihydroxY-6-methylheptane] | 7.5 nM |  |
| COc1ccc(C[C@H](NC(=O)CCCCC(N)C(=O)O)C(=O)N[C@@H](CC(C)C)C(=O)N[C@@H](CC2CCCCC2)[C@@H](O)[C@@H](O)CC(C)C)cc1 (stereo partly drawn) [Example 194, 6-Amino-6-carboxyhexanoyl-(4-OMe)Phe-Leu Amide of 2(S)-Amino-l-cyclohexyl-3(R),4(S)-dihydroxy-6-methylheptane] | 2.3 nM |  |
| CC(C)C[C@H](O)[C@H](O)[C@H](CC1CCCCC1)NC(=O)[C@H](Cc1c[nH]cn1)NC(=O)C(NC(=O)N1CCOCC1)C(C)(C)c1ccccc1 (stereo partly drawn) [Example 178, 2(R,S)-[[(4-Morpholinyl)carbonyl]amino]-3,3-dimethyl-3-phenylpropionyl-His Amide of 2(S)-Amino-l-cyclohexyl-3(R),4(S)-dihydroxy-6-methylheptane] | 2 nM |  |
| CC(C)C[C@H](O)[C@H](O)[C@H](CC1CCCCC1)NC(=O)[C@H](Cc1c[nH]cn1)NC(=O)[C@H](Cc1ccccc1)NC(=O)CCN [Example 62, H-β-Ala-Phe-His Amide of 2(S)-Amino-l-cyclohexyl-3(R), 4(S)-dihydroxy-6-methylheptane Diacetic Acid Salt] | 2 nM |  |
| CC(C)C[C@H](O)[C@H](O)[C@H](CC1CCCCC1)NC(=O)[C@H](Cc1c[nH]cn1)NC(=O)[C@H](Cc1ccccc1)NC(=O)CN(C)C(=O)OCc1ccccc1 [Example 63, Cbz-Sar-phe-His Amide of 2(S)-Amino-l-cyclohexyl-3(R),4(S)-dihydroxy-6-methylheptane] | 0.45 nM |  |
| COc1ccc(C[C@H](N)C(=O)N[C@@H](CC(C)C)C(=O)N[C@@H](CC2CCCCC2)[C@@H](O)[C@@H](O)CC(C)C)cc1 [Example 55, H-(4-OCH3)Phe-Leu Amide of 2(S)-Amino-1-cyclohexyl-3(R),4(S)-dihydroxy-6-methylheptane] | 2 nM |  |
| CC(C)CC[C@H](O)[C@H](O)[C@H](CC1CCCCC1)NC(=O)[C@H](Cc1c[nH]cn1)NC(=O)[C@H](Cc1ccccc1)NC(=O)CC(C)(C)C [Example 43, TBA-Phe-His Amide of 2(S)-Amino-1-cyclohexyl-3(R),4(S)-dihydroxy-7-methyloctane] | 5 nM |  |
| CC(C)C[C@H](O)[C@H](O)[C@H](CC1CCCCC1)NC(=O)[C@H](Cc1cnc[nH]1)NC(=O)[C@H](Cc1ccccc1)NC(=O)N1CCOCC1 [Example 118, [(4-Morpholinyl)carbonyl]-phe-His Amide of 2(S)-Amino-1-cyclohexyl-3(R),4(S)-dihydroxy-6-methylheptane] | 0.5 nM |  |
| CCOC(=O)[C@H](C)N[C@@H](Cc1ccccc1)C(=O)N[C@@H](Cc1c[nH]cn1)C(=O)N[C@@H](CC1CCCCC1)[C@@H](O)[C@@H](O)CC(C)C [Example 185B, [l(S)-(Ethoxycarbonyl)-ethyl]-Phe-His Amide of 2(S)-Amino-1-cyclohexyl-3(R),4(S)-dihydroxy-6-methylheptane] | 0.51 nM |  |
| CC(C)C[C@H](O)[C@H](O)[C@H](CC1CCCCC1)NC(=O)[C@H](Cc1c[nH]cn1)NC(=O)[C@H](Cc1ccccc1)NC(=O)N1CCNCC1 [Example 124, [(1-Piperazinyl)carbonyl]-Phe-His Amide of 2(S)-Amino-1-cyclohexyl-3(R),4(S)-dihydroxy-6-methylheptane Bis-Acetic Acid Salt] |  | 0.65 nM |
| CCOC(=O)N[C@@H](Cc1ccccc1)C(=O)N[C@@H](CC(C)C)C(=O)N[C@@H](CC1CCCCC1)[C@@H](O)[C@@H](O)CC [Example 47, Ethoxycarbonyl-Phe-Leu Amide of 2(S)-Amino-1-cyclohexyl-3(R),4(S)-dihydroxyhexane] | 1 nM |  |
| COc1ccc(C[C@H](NC(=O)C2CCNCC2)C(=O)N[C@@H](Cc2c[nH]cn2)C(=O)N[C@@H](CC2CCCCC2)[C@@H](O)[C@@H](O)CC(C)C)cc1 [Example 179, H-Isonipecotyl-(4-OCH3)Phe-His Amide of 2(S)-Amino-1-cyclohexyl-3(R),4(S)-dihydroxy-6-methylheptane Diacetic Acid Salt] | 1 nM |  |
| CC(C)C[C@H](NC(=O)OC(C)(C)C)C(=O)N[C@@H](Cc1c[nH]cn1)C(=O)N[C@@H](CC1CCCCC1)[C@@H](O)[C@@H](O)CC(C)C [Example 31, Boc-Leu-His Amide of 2(S)-Amino-l-cyclohexyl-3(R),4(S)-dihydroxy-6-methylheptane] |  | 1 nM |
| CC(C)C[C@H](O)[C@H](O)[C@H](CC1CCCCC1)NC(=O)[C@H](Cc1c[nH]cn1)NC(=O)[C@H](Cc1ccccc1)NC(=O)CC(C)(C)N [Example 75, H-[(β,β-di-Me)-β-Ala]-Phe-His Amide of 2(S)-Amino-1-cyclohexyl-3(R),4(S)-dihydroxy-6-methylheptane Diacetic Acid Salt] | 0.4 nM |  |
| CC(C)C[C@H](O)[C@H](O)[C@H](CC1CCCCC1)NC(=O)[C@H](Cc1c[nH]cn1)NC(=O)[C@H](Cc1ccccc1)NC(=O)C1CCNCC1 [Example 68, H-Isonipectoyl-Phe-His Amide of 2(S)-Amino-l-cyclohexyl-3(R),4(S)-dihydroxy-6-methylheptane Diacetic Acid Salt] | 1 nM |  |
| CC(C)C[C@H](O)[C@H](O)[C@H](CC1CCCCC1)NC(=O)[C@H](Cc1c[nH]cn1)NC(=O)[C@H](Cc1ccccc1)OC(=O)N1CCOCC1 [Example 111, 2(S)-[(4-Morpholinyl)carbonyl]oxy-3-phenylpropionyl-His Amide of 2(S)-Amino-l-cyclohexyl-3(R),4(S)-dihydroxy-6-methylheptane] | 0.5 nM |  |
| CC(C)C[C@@H](O)[C@@H](O)[C@H](CC1CCCCC1)NC(=O)[C@H](Cc1c[nH]cn1)NC(=O)[C@H](Cc1ccccc1)NC(=O)OC(C)(C)C [Example 18, Boc-Phe-His Amide of 2(S)-Amino-l-cyclohexyl-3(S),4(R)-dihydroxy-6-methylheptane] |  | 95 nM |
| CC(C)C[C@H](NC(=O)[C@H](Cc1ccccc1)NCCC#N)C(=O)N[C@@H](CC1CCCCC1)[C@@H](O)[C@@H](O)CC(C)C [Example 58, [N-(2-Cyanoethyl)]Phe-Leu Amide of 2(S)-Amino-1-cyclohexyl-3(R),4(S)-dihydroxy-6-methylheptane] | 7 nM |  |

Source: US5032577A, “Peptidylaminodiols” (Abbott Laboratories, priority 1987, dated 1991)
